Structures can show the parent of a compound that is named as a salt.
Biological target: T1, human CDK9/CyclinT kinase complex (Homo sapiens, UniProt P50750)
T1 construct: purchased Proqinase 0371-0345-1
Experiment: In vitro CDK9/CyclinT assay (IMAP fluorescence polarization kinase assay)
Format: biochemical
Settings: for IC50: 5 nM CDK9/CyclinT, 400 nM TAMRA-Rbtide, 12 μM ATP, 1 hour at room temperature, read-out: CDK9 inhibitory range
Protocol: In Vitro CDK9/CyclinT Assay
The activity of the compounds described in the present invention can be determined by the following kinase assay, which measures the phosphorylation of a fluorescently-labeled peptide by human CDK9/CyclinT kinase complex by fluorescent polarization using a commercially available IMAP Screening Express Assay Kit (Molecular devices).
CDK9 kinase assays were performed in low protein binding 384-well plates (Corning 3676). Test compounds were diluted in 100% DMSO to 5 mM stock concentration, then further dilutions were made in H2O or 100% DMSO to desirable concentrations.
Each reaction consisted of 5 nM enzyme: CDK9/CyclinT (Proqinase cat#0371-0345-1), 400 nM TAMRA-Rbtide (synthetic 15-mer peptide derived from human retinoblastoma tumor suppressor protein labelled with TAMRA dye, Genecust Europe), 12 μM ATP (=Kmapp, Sigma-Aldrich) and kinase buffer: 20 mM MOPS pH 7 (Sigma-Aldrich), 1 mM DTT (Sigma-Aldrich), 10 mM MgCl2 (Sigma-Aldrich), 0.01% Tween 20 (Sigma-Aldrich).
For each reaction, 4 or 6 μl containing TAMRA-Rbtide, ATP and kianse buffer were combined with 2 μl diluted compound in H2O or 0.028 μl compound in 100% DMSO. The kinase reaction was started by the addition of 2 μl diluted enzyme. The reaction was allowed to run for 1 hours at room temperature. The reaction was stopped by adding 15 μl IMAP beads (1:400 beads in progressive (100% buffer A) 1× buffer). After an additional 1 hours, fluorescent polarization (Ex: 550-10 nm, Em: 590-10 nm, Dich: 561 nm) was measured using an Analyst GT (Molecular devices).

T1 sequence (P50750 whole entry): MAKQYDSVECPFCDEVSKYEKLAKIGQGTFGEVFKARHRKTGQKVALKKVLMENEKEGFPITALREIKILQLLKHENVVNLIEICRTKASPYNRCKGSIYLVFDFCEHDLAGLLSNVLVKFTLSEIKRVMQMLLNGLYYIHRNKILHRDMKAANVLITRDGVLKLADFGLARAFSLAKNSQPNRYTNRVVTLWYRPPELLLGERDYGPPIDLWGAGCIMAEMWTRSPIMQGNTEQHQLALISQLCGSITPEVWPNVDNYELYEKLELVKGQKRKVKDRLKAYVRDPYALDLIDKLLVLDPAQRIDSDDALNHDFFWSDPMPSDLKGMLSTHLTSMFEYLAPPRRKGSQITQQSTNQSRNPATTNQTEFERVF
T1 sequence (O60563 whole entry partner): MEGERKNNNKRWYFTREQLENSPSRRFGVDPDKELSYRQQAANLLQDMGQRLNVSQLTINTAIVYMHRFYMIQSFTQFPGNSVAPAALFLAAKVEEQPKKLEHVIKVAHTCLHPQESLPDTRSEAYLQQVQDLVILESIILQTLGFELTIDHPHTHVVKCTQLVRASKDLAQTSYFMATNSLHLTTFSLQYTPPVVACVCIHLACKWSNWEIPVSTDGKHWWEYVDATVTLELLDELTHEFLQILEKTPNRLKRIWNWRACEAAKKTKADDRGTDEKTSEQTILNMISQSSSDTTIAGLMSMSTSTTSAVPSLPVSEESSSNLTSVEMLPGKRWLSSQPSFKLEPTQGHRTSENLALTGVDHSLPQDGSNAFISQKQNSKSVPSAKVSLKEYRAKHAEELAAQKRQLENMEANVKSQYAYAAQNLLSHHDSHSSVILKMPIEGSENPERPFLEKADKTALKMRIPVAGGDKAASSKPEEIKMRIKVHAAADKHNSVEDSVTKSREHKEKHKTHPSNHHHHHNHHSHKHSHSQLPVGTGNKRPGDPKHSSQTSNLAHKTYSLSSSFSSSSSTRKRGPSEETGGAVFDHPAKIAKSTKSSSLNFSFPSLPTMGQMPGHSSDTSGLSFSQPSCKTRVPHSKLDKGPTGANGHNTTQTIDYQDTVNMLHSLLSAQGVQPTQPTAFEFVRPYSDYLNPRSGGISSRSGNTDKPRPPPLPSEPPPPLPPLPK

Q: With `COc1ccc(COc2ccccc2-c2cc(Nc3ccc(CNS(C)(=O)=O)cc3)ncn2)cc1` [Example 50, N-(4-{6-[2-(4-Methoxy-benzyloxy)-phenyl]-pyrimidin-4-ylamino}-benzyl)-methanesulfonamide] as the compound, how does the IC50 read?
A: Its IC50 is < 1000 nM.

Q: Which IC50 does the source give for `CS(=O)(=O)NCc1ccc(Nc2cc(-c3ccccc3OCc3ccc(F)cc3)ncn2)cc1` [Example 36, N-(4-{6-[2-(4-Fluoro-benzyloxy)-phenyl]-pyrimidin-4-ylamino}-benzyl)-methanesulfonamide] here?
A: Its IC50 is < 1000 nM.

Q: How did the IC50 turn out when `C=C(c1ccccc1)c1cc(Nc2cccc(CNS(C)(=O)=O)c2)ncn1` [Example 3] was run?
A: The IC50 was < 10000 nM.

Q: With `COc1cccc(-c2cc(Nc3ccc(CNS(C)(=O)=O)cc3)ncn2)c1` [Example 47, N-{4-[6-(3-Methoxy-phenyl)-pyrimidin-4-ylamino]-benzyl}-methanesulfonamide] as the compound, how does the IC50 read?
A: Its IC50 is < 10000 nM.

Q: `CSc1ccccc1-c1cc(Nc2ccc(CNS(C)(=O)=O)cc2)ncn1` [Example 41, N-{4-[6-(2-Methylsulfanyl-phenyl)-pyrimidin-4-ylamino]-benzyl}-methanesulfonamide] was tested. Which IC50 did it give?
A: The IC50 was < 1000 nM.

Q: Which IC50 does the source give for `CC(C)Oc1cc(F)ccc1-c1cc(Nc2cccc(CNc3nc4ccccc4[nH]3)c2)ncn1` [Example 77, (1H-Benzoimidazol-2-yl)-{3-[6-(4-fluoro-2-isopropoxy-phenyl)-pyrimidin-4-ylamino]-benzyl}-amine] here?
A: Its IC50 is < 100 nM.

Q: For `CS(=O)(=O)NCc1cccc(Nc2cc(-c3ccc(O)cc3)ncn2)c1` [Example 75, N-{3-[6-(4-Hydroxy-phenyl)-pyrimidin-4-ylamino]-benzyl}-methanesulfonamide], which IC50 is on record?
A: The IC50 was < 100 nM.

Q: For `CS(=O)(=O)NCc1ccc(Nc2cc(-c3ccc(F)cc3F)ncn2)cc1` [Example 42, N-{4-[6-(2,4-Difluoro-phenyl)-pyrimidin-4-ylamino]-benzyl}-methanesulfonamide], which IC50 is on record?
A: The IC50 was > 10000 nM.

Q: `CC(C)Oc1cc(F)ccc1-c1cc(Nc2cccc(Cn3cnc4ccccc43)c2)ncn1` [Example 81, (3-Benzoimidazol-1-ylmethyl-phenyl)-[6-(4-fluoro-2-isopropoxy-phenyl)-pyrimidin-4-yl]-amine] was tested. Which IC50 did it give?
A: Its IC50 is < 100 nM.

Q: For `CCc1ccccc1-c1cc(Nc2cccc(CNS(C)(=O)=O)c2)ncn1` [Example 12, N-{3-[6-(2-Ethyl-phenyl)-pyrimidin-4-ylamino]-benzyl}-methanesulfonamide], which IC50 is on record?
A: Its IC50 is < 1000 nM.

Q: Which CDK9 inhibitory effect does the source give for `COc1cc(F)ccc1-c1cc(Nc2cccc(Cn3cnc4ccccc43)c2)ncn1` [Example 65, (3-Benzoimidazol-1-ylmethyl-phenyl)-[6-(4-fluoro-2-methoxy-phenyl)-pyrimidin-4-yl]-amine] here?
A: The CDK9 inhibitory effect was “nanomolar or low nanomolar range”.

Q: What about the IC50 of the same compound?
A: The IC50 was < 100 nM.

Q: With `COc1ccc(F)cc1-c1cc(Nc2cccc(CNS(C)(=O)=O)c2)ncn1` [Example 9, N-{3-[6-(5-Fluoro-2-methoxy-phenyl)-pyrimidin-4-ylamino]-benzyl}-methanesulfonamide] as the compound, how does the IC50 read?
A: The IC50 was < 1000 nM.

Q: With `COc1cc(F)ccc1-c1cc(Nc2cccc(CNc3nc4ccccc4[nH]3)c2)ncn1` [Example 61, (1H-Benzoimidazol-2-yl)-{3-[6-(4-fluoro-2-methoxy-phenyl)-pyrimidin-4-ylamino]-benzyl}-amine] as the compound, how does the IC50 read?
A: The IC50 was < 1000 nM.

Q: With `CCOc1ccccc1-c1cc(Nc2cccc(CNS(C)(=O)=O)c2)ncn1` [Example 5, N-{3-[6-(2-Ethoxy-phenyl)-pyrimidin-4-ylamino]-benzyl}-methanesulfonamide] as the compound, how does the CDK9 inhibitory effect read?
A: The CDK9 inhibitory effect was “nanomolar or low nanomolar range”.

Q: What about the IC50 of the same compound?
A: The IC50 was < 100 nM.

Q: With `CS(=O)(=O)NCc1cccc(Nc2cc(-c3cccc4c3OCO4)ncn2)c1` [Example 27, N-[3-(6-Benzo[1,3]dioxol-4-yl-pyrimidin-4-ylamino)-benzyl]-methanesulfonamide] as the compound, how does the IC50 read?
A: The IC50 was < 1000 nM.

Q: Which IC50 does the source give for `COc1ccc(-c2cc(Nc3cccc(CNS(C)(=O)=O)c3)ncn2)cc1` [Example 19, N-{3-[6-(4-Methoxy-phenyl)-pyrimidin-4-ylamino]-benzyl}-methanesulfonamide] here?
A: Its IC50 is < 10000 nM.

Q: For `Oc1ccc(-c2cc(Nc3cccc(Cn4cnc5ccccc54)c3)ncn2)cc1` [Example 82, 4-[6-(3-Benzoimidazol-1-ylmethyl-phenylamino)-pyrimidin-4-yl]-phenol], which IC50 is on record?
A: Its IC50 is < 1000 nM.

Q: `COc1ccccc1-c1cc(Nc2cccc(CNc3nc4ccccc4[nH]3)c2)ncn1` [Example 60, (1H-Benzoimidazol-2-yl)-{3-[6-(2-methoxy-phenyl)-pyrimidin-4-ylamino]-benzyl}-amine] was tested. Which IC50 did it give?
A: Its IC50 is < 1000 nM.

Q: For `COc1ccc(C)cc1-c1cc(Nc2cccc(CNS(C)(=O)=O)c2)ncn1` [Example 26, N-{3-[6-(2-Methoxy-5-methyl-phenyl)-pyrimidin-4-ylamino]-benzyl}-methanesulfonamide], which IC50 is on record?
A: Its IC50 is < 10000 nM.

Q: Which IC50 does the source give for `COc1ccccc1-c1cc(Nc2cccc(CNS(=O)(=O)c3c(Cl)cccc3Cl)c2)ncn1` [Example 70, 2,6-Dichloro-N-{3-[6-(2-methoxy-phenyl)-pyrimidin-4-ylamino]-benzyl}-benzenesulfonamide] here?
A: Its IC50 is < 1000 nM.

Q: Which IC50 does the source give for `COc1ccc(F)cc1-c1cc(Nc2ccc(CNS(C)(=O)=O)cc2)ncn1` [Example 38, N-{4-[6-(5-Fluoro-2-methoxy-phenyl)-pyrimidin-4-ylamino]-benzyl}-methanesulfonamide] here?
A: Its IC50 is < 1000 nM.

Q: `CS(=O)(=O)NCc1ccc(Nc2cc(Cl)ncn2)cc1` [Example 33, N-[4-(6-Chloro-pyrimidin-4-ylamino)-benzyl]-methanesulfonamide] was tested. Which IC50 did it give?
A: Its IC50 is > 10000 nM.

Q: For `COc1ccccc1-c1cc(Nc2cccc(CN)c2)ncn1` [Example 69, (3-Aminomethyl-phenyl)-[6-(2-methoxy-phenyl)-pyrimidin-4-yl]-amine hydrochloride], which CDK9 inhibitory effect is on record?
A: Its CDK9 inhibitory effect is “nanomolar or low nanomolar range”.

Q: And the IC50?
A: The IC50 was < 100 nM.

Q: With `CS(=O)(=O)NCc1cccc(Nc2cc(-c3cccc(C(N)=O)c3)ncn2)c1` [Example 20, 3-{6-[3-(Methanesulfonylamino-methyl)-phenylamino]-pyrimidin-4-yl}-benzamide] as the compound, how does the IC50 read?
A: The IC50 was < 10000 nM.

Q: `Clc1cc(Nc2ccc(Cn3cnc4ccccc43)cc2)ncn1` [Example 86, (4-Benzoimidazol-1-ylmethyl-phenyl)-(6-chloro-pyrimidin-4-yl)-amine] was tested. Which IC50 did it give?
A: Its IC50 is > 10000 nM.

Q: With `CS(=O)(=O)NCc1cccc(Nc2cc(-c3cccc(N)c3)ncn2)c1` [Example 22, N-{3-[6-(3-Amino-phenyl)-pyrimidin-4-ylamino]-benzyl}-methanesulfonamide] as the compound, how does the IC50 read?
A: The IC50 was < 1000 nM.

Q: With `CS(=O)(=O)NCc1cccc(Nc2cc(-c3ccccc3)ncn2)c1` [Example 21, N-[3-(6-Phenyl-pyrimidin-4-ylamino)-benzyl]-methanesulfonamide] as the compound, how does the IC50 read?
A: The IC50 was < 10000 nM.

Q: Which IC50 does the source give for `COc1ccccc1-c1cc(Nc2cccc(Cn3ccc4ccccc43)c2)ncn1` [Example 91, (3-Indol-1-ylmethyl-phenyl)-[6-(2-methoxy-phenyl)-pyrimidin-4-yl]-amine] here?
A: Its IC50 is < 10000 nM.

Q: With `Clc1cc(Nc2cccc(Cn3ccc4ccccc43)c2)ncn1` [Example 90, (6-Chloro-pyrimidin-4-yl)-(3-indol-1-ylmethyl-phenyl)-amine] as the compound, how does the IC50 read?
A: Its IC50 is > 10000 nM.

Q: `CC(C)Oc1ccccc1-c1cc(Nc2cccc(Cn3cnc4ccccc43)c2)ncn1` [Example 80, (3-Benzoimidazol-1-ylmethyl-phenyl)-[6-(2-isopropoxy-phenyl)-pyrimidin-4-yl]-amine] was tested. Which IC50 did it give?
A: Its IC50 is < 100 nM.

Q: How did the IC50 turn out when `CS(=O)(=O)NCc1ccc(Nc2cc(-c3ccccc3)ncn2)cc1` [Example 45, N-[4-(6-Phenyl-pyrimidin-4-ylamino)-benzyl]-methanesulfonamide] was run?
A: The IC50 was < 10000 nM.

Q: How did the IC50 turn out when `CC(C)Oc1cc(F)ccc1-c1cc(Nc2cccc(CNS(C)(=O)=O)c2)ncn1` [Example 14, N-{3-[6-(4-Fluoro-2-isopropoxy-phenyl)-pyrimidin-4-ylamino]-benzyl}-methanesulfonamide] was run?
A: Its IC50 is < 1000 nM.

Q: For `CS(=O)(=O)NCc1cccc(Nc2cc(-c3ccccc3OCc3ccccc3)ncn2)c1` [Example 2, N-{3-[6-(2-Benzyloxy-phenyl)-pyrimidin-4-ylamino]-benzyl}-methanesulfonamide], which IC50 is on record?
A: Its IC50 is < 1000 nM.

Q: `CS(=O)(=O)NCc1cccc(Nc2cc(Cl)ncn2)c1` [Example 1, N-[3-(6-Chloro-pyrimidin-4-ylamino)-benzyl]-methanesulfonamide] was tested. Which IC50 did it give?
A: Its IC50 is > 10000 nM.

Q: With `CC(C)Oc1ccccc1-c1cc(Nc2ccc(CNS(C)(=O)=O)cc2)ncn1` [Example 56, N-{4-[6-(2-Isopropoxy-phenyl)-pyrimidin-4-ylamino]-benzyl}-methanesulfonamide] as the compound, how does the CDK9 inhibitory effect read?
A: The CDK9 inhibitory effect was “nanomolar or low nanomolar range”.

Q: What about the IC50 of the same compound?
A: Its IC50 is < 100 nM.

Q: For `COc1ccccc1-c1cc(Nc2cccc(CNS(=O)(=O)Cc3ccccc3)c2)ncn1` [Example 74, N-{3-[6-(2-Methoxy-phenyl)-pyrimidin-4-ylamino]-benzyl}-C-phenyl-methanesulfonamide], which IC50 is on record?
A: Its IC50 is < 1000 nM.

Q: Which IC50 does the source give for `CCCOc1ccccc1-c1cc(Nc2cccc(CNS(C)(=O)=O)c2)ncn1` [Example 31, N-{3-[6-(2-Propoxy-phenyl)-pyrimidin-4-ylamino]-benzyl}-methanesulfonamide] here?
A: The IC50 was < 1000 nM.

Q: `CS(=O)(=O)NCc1ccc(Nc2cc(-c3ccccc3OCc3cccc(F)c3)ncn2)cc1` [Example 49, N-(4-{6-[2-(3-Fluoro-benzyloxy)-phenyl]-pyrimidin-4-ylamino}-benzyl)-methanesulfonamide] was tested. Which IC50 did it give?
A: Its IC50 is < 1000 nM.
